Experimental data from patent publication US10350210B2, “EGFR and ALK dual inhibitor” (PRECEDO PHARMACEUTICALS CO., LTD, priority 2015, dated 2019).

Assays:
NCI-H3122 = assay: Growth of cancer cells (Cell Titer-Glo viability), NCI-H3122; type: cell-based; conditions: Homo sapiens; NCI-H3122 (expressing ALK gene), 72 hrs; read-out: GI50
Excerpt: (§1) By testing the effect of the novel kinase inhibitors on the proliferation of cancer cells, the selectivity of the compounds of the present disclosure in inhibiting the proliferation of cancer cells was further assessed. In this example, human non-small cell lung cancer cell NCI-H1975 (expressing EGFR L858R/T790M double mutant gene), human skin squamous carcinoma cell A431 (expressing wild-type EGFR gene), non-small cell lung cancer NCI-H3255 (expressing EGFR L858R mutant gene), non-small cell lung cancer cell NCI-H3122 (expressing ALK gene), human non-small cell lung cancer cell A549 (expressing wild-type EGFR gene), human non-small cell lung cancer cell NCI-H2122 (expressing wild-type EGFR gene), human non-small cell lung cancer cell NCI-H460 (expressing wild-type EGFR gene), human non-small cell lung cancer cell PC-9 (expressing EGFR delE746_A750 mutant gene), Chinese hamster ovary cell CHO (Cricetulus griseus, hamster, Chinese, ovary), Chinese hamster lung cell CHL, human non-small cell lung cancer cell HCC827 (expressing mutant EGFR del19 gene), human lung adenocarcinoma cell HCC4006 (expressing mutant EGFR del19 gene), human non-small cell lung cancer cell NCI-H2228 (expressing wild-type ALK gene), and mouse primary B cell BaF3 were used, and the above cells were all purchased from ATCC (US). In addition, mouse BaF3-TEL-ALK (stably expressing ALK kinase), mouse BaF3-ALK-F1174L (stably expressing mutant ALK F1174L kinase), mouse BaF3-NPM-ALK (stably expressing ALK kinase), mouse BaF3-TEL-EGFR (stably expressing EGFR kinase), mouse BaF3-TEL-EGFR-T790M (stably expressing EGFR T790M mutant kinase), mouse BaF3-FL-EGFR-Del19 (stably expressing EGFR delE746_A750 mutant kinase), mouse BaF3-TEL-EGFR-L858R (stably expressing EGFR L858R mutant kinase), mouse BaF3-FL-EGFR-T790M-L858R (stably expressing EGFR T790M/L858R mutant kinase), mouse BaF3-TEL-INSR (stably expressing INSR protein), mouse BaF3-TEL-IGF1R (stably expressing IGF1R Protein), mouse BaF3-EML4-ALK (stably expressing EML4-ALK Protein), mouse BaF3-TEL-JAK3 (stably expressing JAK3 kinase protein), mouse BaF3-TEL-CSF1R (stably expressing CSF1R protein), and mouse BaF3-TEL-ALK-F1196M (stably expressing ALK F1196M mutant kinase) were also used in this example. The above cell lines were all established by our laboratory via the following process: kinase proteins or protein domain sequences of human ALK, ALK F1174L, EGFR, EGFR T790M, EGFR delE746_A750, EGFR L858, EGFR T790M/L858R, INSR, IGF1R, EML4-ALK, JAK3, CSF1R, ALK F1196M were amplified respectively by PCR, and were respectively inserted into MSCV-Puro vector (Clontech) with N-terminal TEL fragments and/or NPM fragments and/or TPR fragments; the resultants were stably transfected into mouse BaF3 cells by the means of retrovirus, and the IL-3 growth factors were removed, and eventually the ALK, ALK F1174L, EGFR, EGFR T790M, EGFR delE746_A750, EGFR L858, EGFR T790M/L858R, INSR, IGF1R, EML4-ALK, JAK3, CSF1R, ALK F1196M-transferred protein dependent cell lines were obtained.
(§2) The number of viable cells was determined quantitatively by a microplate reader using Cell Titer-Glo® (Promega, US) chemiluminescence cell viability assay kit.

HCC827 = assay: Growth of cancer cells (Cell Titer-Glo viability), HCC827; type: cell-based; conditions: Homo sapiens; HCC827 (mutant EGFR del19), 72 hrs
Excerpt: as §1, §2

A549 = assay: Growth of cancer cells (Cell Titer-Glo viability), A549; type: cell-based; conditions: Homo sapiens; A549 (wild-type EGFR), 72 hrs
Excerpt: as §1, §2

BaF3 = assay: Cell growth (Cell Titer-Glo viability), BaF3; type: cell-based; conditions: BaF3 mouse primary B cell, 72 hrs
Excerpt: as §1, §2

NCI-H2228 = assay: Growth of cancer cells (Cell Titer-Glo viability), NCI-H2228; type: cell-based; conditions: Homo sapiens; NCI-H2228 (wild-type ALK), 72 hrs
Excerpt: as §1, §2

A431 = assay: Growth of cancer cells (Cell Titer-Glo viability), A431; type: cell-based; conditions: Homo sapiens, A-431; A431 (wild-type EGFR), 72 hrs; read-out: GI50
Excerpt: as §1, §2

CHO = assay: Cell growth (Cell Titer-Glo viability), CHO; type: cell-based, Chinese hamster; conditions: Cricetulus griseus; CHO Chinese hamster ovary cell, 72 hrs; read-out: GI50
Excerpt: as §1, §2

BaF3-TEL-EGFR = assay: Cell growth (Cell Titer-Glo viability), BaF3-TEL-EGFR; type: cell-based; conditions: Mus musculus; BaF3-TEL-EGFR (stably expressing EGFR kinase), 72 hrs
Excerpt: as §1, §2

CHL = assay: Cell growth (Cell Titer-Glo viability), CHL; type: cell-based, Chinese hamster; conditions: Cricetulus griseus; CHL Chinese hamster lung cell, 72 hrs; read-out: GI50
Excerpt: as §1, §2

BaF3-TEL-ALK = assay: Cell growth (Cell Titer-Glo viability), BaF3-TEL-ALK; type: cell-based; conditions: Mus musculus; BaF3-TEL-ALK (stably expressing ALK kinase), 72 hrs
Excerpt: as §1, §2

BaF3-FL-EGFR-Del19 = assay: Cell growth (Cell Titer-Glo viability), BaF3-FL-EGFR-Del19; type: cell-based; conditions: Mus musculus; BaF3-FL-EGFR-Del19 (EGFR delE746_A750 mutant kinase), 72 hrs
Excerpt: as §1, §2

BaF3-TEL-EGFR-T790M = assay: Cell growth (Cell Titer-Glo viability), BaF3-TEL-EGFR-T790M; type: cell-based; conditions: Mus musculus; BaF3-TEL-EGFR-T790M (EGFR T790M mutant kinase), 72 hrs
Excerpt: as §1, §2

NCI-H2122 = assay: Growth of cancer cells (Cell Titer-Glo viability), NCI-H2122; type: cell-based; conditions: Homo sapiens; NCI-H2122 (wild-type EGFR), 72 hrs
Excerpt: as §1, §2

PC-9 = assay: Growth of cancer cells (Cell Titer-Glo viability), PC-9; type: cell-based; conditions: Homo sapiens; PC-9 (EGFR delE746_A750 mutant), 72 hrs
Excerpt: as §1, §2

BaF3-ALK-F1174L = assay: Cell growth (Cell Titer-Glo viability), BaF3-ALK-F1174L; type: cell-based; conditions: Mus musculus; BaF3-ALK-F1174L (mutant ALK F1174L kinase), 72 hrs
Excerpt: as §1, §2

NCI-H1975 = assay: Growth of cancer cells (Cell Titer-Glo viability), NCI-H1975; type: cell-based; conditions: Homo sapiens; NCI-H1975 (EGFR L858R/T790M double mutant), 72 hrs
Excerpt: as §1, §2

BaF3-NPM-ALK = assay: Cell growth (Cell Titer-Glo viability), BaF3-NPM-ALK; type: cell-based; conditions: Mus musculus; BaF3-NPM-ALK (stably expressing ALK kinase), 72 hrs
Excerpt: as §1, §2

BaF3-TEL-INSR = assay: Cell growth (Cell Titer-Glo viability), BaF3-TEL-INSR; type: cell-based; conditions: Mus musculus; BaF3-TEL-INSR (stably expressing INSR protein), 72 hrs
Excerpt: as §1, §2

NCI-H3255 = assay: Growth of cancer cells (Cell Titer-Glo viability), NCI-H3255; type: cell-based; conditions: Homo sapiens; NCI-H3255 (EGFR L858R mutant), 72 hrs
Excerpt: as §1, §2

| Compound | GI50 (NCI-H3122) [nM] | GI50 (HCC827) [nM] | GI50 (A549) [nM] | GI50 (BaF3) [nM] | GI50 (NCI-H2228) [nM] | GI50 (A431) [nM] | GI50 (CHO) [nM] | GI50 (BaF3-TEL-EGFR) [nM] | GI50 (CHL) [nM] | GI50 (BaF3-TEL-ALK) [nM] | GI50 (BaF3-FL-EGFR-Del19) [nM] | GI50 (BaF3-TEL-EGFR-T790M) [nM] | GI50 (NCI-H2122) [nM] | GI50 (PC-9) [nM] | GI50 (BaF3-ALK-F1174L) [nM] | GI50 (NCI-H1975) [nM] | GI50 (BaF3-NPM-ALK) [nM] | GI50 (BaF3-TEL-INSR) [nM] | GI50 (NCI-H3255) [nM] |
| --- | --- | --- | --- | --- | --- | --- | --- | --- | --- | --- | --- | --- | --- | --- | --- | --- | --- | --- | --- |
| C=CC(=O)Nc1cc(Nc2ncc(Cl)c(Nc3ccccc3S(=O)(=O)C(C)C)n2)c(OC)cc1N1CCN(CCF)CC1 [Compound 9, N-(5-(5-chloro-4-(2-(isopropylsulfonyl)phenylamino)pyrimidin-2-ylamino)-2-(4-(2-fluoroethyl)piperazin-1-yl)-4-methoxyphenyl)acrylamide] | 42 | 35 | 1300 | 2900 | 260 | 320 | 1000 | 650 | 4300 | > 10000 | < 0.3 | 47 | 680 | 43 | 540 | 59 | – | – | – |
| C=CC(=O)Nc1cc(Nc2ncc(Cl)c(Nc3ccccc3P(C)(C)=O)n2)c(OC)cc1N1CCN(CC)CC1 [Compound 47, N-(5-(5-chloro-4-(2-(dimethylphosphinoyl)phenylamino)pyrimidin-2-ylamino)-2-(4-ethylpiperazin-1-yl)-4-methoxyphenyl)acrylamide] | 37 | < 0.3 | 1700 | > 10000 | – | – | – | – | – | 74 | – | – | – | 5 | – | 26 | 310 | 72 | 140 |
| C=CC(=O)Nc1cc(Nc2ncc(Cl)c(Nc3ccccc3P(C)(C)=O)n2)c(OC)cc1N1CCC(N2CCCCC2)CC1 [Compound 48, N-(5-(5-chloro-4-(2-(dimethylphosphinoyl)phenylamino)pyrimidin-2-ylamino)-4-methoxy-2-(4-(piperidin-1-yl)piperidin-1-yl)phenyl)acrylamide] | 78 | 5 | 5300 | 5300 | – | – | – | – | – | 190 | – | – | – | 32 | – | 41 | 380 | 290 | 200 |
| C=CC(=O)Nc1cc(Nc2ncc(Cl)c(Nc3ccc(F)c(Cl)c3)n2)c(OC)cc1N1CCN(C)CC1 [Compound 21, N-(5-(5-chloro-4-(3-chloro-4-fluorophenylamino)pyrimidin-2-ylamino)-4-methoxy-2-(4-methylpiperazin-1-yl)phenyl)acrylamide] | 300 | 28 | > 10000 | 6800 | 78 | 1100 | 6200 | – | > 10000 | 43 | < 0.3 | 35 | 1400 | 31 | 740 | 100 | – | – | – |
